Like-named read-outs stand apart in the source and are kept apart here.
Columns and labels:
[1] = test system: beet armyworm (Spodoptera exigua); experiment: Insecticidal test on treated lepidopteran diet, beet armyworm; format: in vivo; conditions: 120 h, read-out: AVG LAPHEG 50 (percent control, beet army worm)
Experimental: (§1) The compounds identified in Table 1 were prepared according to the previous methods and were tested against beet armyworm and corn earworm as follows:
(§2) Insecticidal Test for Corn Earworm (Helicoverpa zea) and Beet Armyworm (Spodoptera exigua).
(§3) To prepare test solution, the test compound was formulated at 2000 ppm solution as 4 mg/2 mL of 9 acetone:1 tap water. 50 μL of the 2000 ppm (equivalent to 50 μg/cm^2 dose on diet surface area) test solution was pipetted upon the surface of 1 mL of lepidopteran diet (Southland Multi-Species Lepidopteran Diet) contained in each of eight wells per insect species (one well=1 replication). A second-instar corn earworm and beet armyworm was placed upon the treated diet in each well once the solvent had air-dried. Trays containing the treated diet and larvae were covered and then held in a growth chamber at 25° C., 50-55% RH, and 16 hr light:8 hr dark for 5 days. Observation were conducted 5 days after treatment and infestation. The number of dead insects of 8 per species per treatment was then determined and the results are given in Table 1 as a percent control at a dose of […].
(§4) Keys to the table: Mass spectral data were obtained using liquid chromatography mass spectroscopy (LC-MS). The masses are detected using electrospray ionization (ESI) and reported as Mol Ion (M+H, M−H); AVG LAPHEG 50 refers to activity against beet army worm (Spodoptera exigua) as defined above; AVG HELIZE 50 refers to activity against corn ear worm (Helicoverpa zea) as described above.

[2] = test system: corn earworm (Helicoverpa zea); experiment: Insecticidal test on treated lepidopteran diet, corn earworm; format: in vivo; conditions: 120 h, read-out: AVG HELIZE 50 (percent control, corn ear worm)
Experimental: as §1, §2, §3, §4

[3] = second-instar larvae on treated diet, 8 wells, dose of 50 mg/cm^2 [sic] (2000 ppm, 50 μL), dead insects counted 5 days after treatment

Row | Structure (SMILES) | pest or weed control at 2000 µg/mL [1, 3] | pest or weed control at 2000 µg/mL [2, 3] | pest or weed control at 2000 µg/mL [1] | pest or weed control at 2000 µg/mL [2]
1 | CC1CN(c2nc(N/N=C/c3cc(F)cc(C(F)(F)F)c3)nc(Nc3ccc(F)c(C(F)(F)F)c3)n2)CC(C)O1 (stereo not drawn) [Compound 47] | 100% | 75% | – | –
2 | CCOCCN(CCOCC)c1nc(N/N=C/c2ccc(OC(F)(F)F)cc2)nc(Nc2ccc(F)c(C(F)(F)F)c2)n1 [Compound 48] | 13% | 0% | – | –
3 | CC1CN(c2nc(N/N=C/c3ccc(OC(F)(F)C(F)F)cc3)nc(Nc3ccc(F)c(C(F)(F)F)c3)n2)CC(C)O1 (stereo not drawn) [Compound 49] | 100% | 100% | – | –
4 | FC(F)(F)Oc1ccc(/C=N/Nc2nc(NCCN3CCOCC3)nc(Nc3cccc(C(F)(F)F)c3)n2)cc1 [Compound 50] | 100% | 100% | – | –
5 | Fc1ccc(Nc2nc(NCc3ccc(Cl)nc3)nc(N/N=C/c3cccc(OC(F)(F)C(F)F)c3)n2)cc1C(F)(F)F [Compound 51] | 100% | 100% | – | –
6 | Fc1ccc(Nc2nc(N/N=C/c3ccc(OC(F)(F)C(F)F)cc3)nc(N3CCOCC3)n2)cc1C(F)(F)F [Compound 52] | 100% | 100% | – | –
7 | Fc1ccc(Nc2nc(N/N=C/c3cccc(OC(F)(F)C(F)F)c3)nc(N3CCOCC3)n2)cc1C(F)(F)F [Compound 53] | 100% | 100% | – | –
8 | Fc1ccc(Nc2nc(N/N=C/c3ccc(OC(F)(F)F)cc3)nc(N3CCOCC3)n2)cc1C(F)(F)F [Compound 54] | 100% | 100% | – | –
9 | Cc1cnc(CNc2nc(N/N=C/c3cccc(OC(F)(F)C(F)F)c3)nc(Nc3ccc(F)c(C(F)(F)F)c3)n2)cn1 [Compound 56] | 100% | 63% | – | –
10 | Cc1cnc(CNc2nc(N/N=C/c3ccc(OC(F)(F)F)cc3)nc(Nc3ccc(F)c(C(F)(F)F)c3)n2)cn1 [Compound 57] | 100% | 100% | – | –
11 | CONc1nc(N/N=C/c2cccc(C(F)(F)F)c2)nc(Nc2ccc(OC(F)(F)F)cc2)n1 [Compound 58] | 100% | 100% | – | –
12 | Fc1ccc(Nc2nc(NCc3ccc(Cl)nc3)nc(N/N=C/c3cccc(OC(F)(F)F)c3)n2)cc1C(F)(F)F [Compound 60] | 100% | 100% | – | –
13 | FC(F)C(F)(F)Oc1cccc(/C=N/Nc2nc(Nc3ccc(OC(F)(F)F)cc3)nc(N3CCOCC3)n2)c1 [Compound 61] | 100% | 100% | – | –
14 | FC(F)(F)Oc1ccc(/C=N/Nc2nc(Nc3cccc(C(F)(F)F)c3)nc(N3CCOCC3)n2)cc1 [Compound 62] | 100% | 100% | – | –
15 | Fc1ccc(Nc2nc(NCc3ccc(Cl)nc3)nc(N/N=C/c3ccc(OC(F)(F)C(F)F)cc3)n2)cc1C(F)(F)F [Compound 63] | 100% | 100% | – | –
16 | Fc1ccc(Nc2nc(NCc3ccncc3)nc(N/N=C/c3ccc(OC(F)(F)F)cc3)n2)cc1C(F)(F)F [Compound 64] | 100% | 100% | – | –
17 | Fc1ccc(Nc2nc(NCc3ccc(Cl)nc3)nc(N/N=C/c3ccc(C(F)(F)F)cc3)n2)cc1C(F)(F)F [Compound 65] | 100% | 100% | – | –
18 | COc1cccc(/C=N/Nc2nc(NCc3ccc(Cl)nc3)nc(Nc3ccc(F)c(C(F)(F)F)c3)n2)c1 [Compound 66] | 100% | 100% | – | –
19 | Fc1ccc(Nc2nc(NCc3ccc(Cl)nc3)nc(N/N=C/c3cc(Cl)cc(Cl)c3)n2)cc1C(F)(F)F [Compound 67] | 100% | 100% | – | –
20 | Fc1ccc(Nc2nc(NCc3ccc(Cl)nc3)nc(N/N=C/c3ccc(Cl)cc3)n2)cc1C(F)(F)F [Compound 68] | 100% | 100% | – | –
21 | Fc1ccccc1/C=N/Nc1nc(NCc2ccc(Cl)nc2)nc(Nc2ccc(F)c(C(F)(F)F)c2)n1 [Compound 69] | 100% | 100% | – | –
22 | Fc1ccc(Nc2nc(NCc3ccc(Cl)nc3)nc(N/N=C/c3cccc(Br)c3)n2)cc1C(F)(F)F [Compound 70] | 100% | 100% | – | –
23 | Fc1ccc(Nc2nc(NCc3ccc(Cl)nc3)nc(N/N=C/c3ccc(Cl)c(Cl)c3)n2)cc1C(F)(F)F [Compound 71] | 100% | 100% | – | –

Row | Structure (SMILES) | pest or weed control at 2000 µg/mL [1, 3] | pest or weed control at 2000 µg/mL [2, 3] | pest or weed control at 2000 µg/mL [1] | pest or weed control at 2000 µg/mL [2]
24 | Fc1ccc(Nc2nc(NCc3ccc(Cl)nc3)nc(N/N=C/c3ccccc3Cl)n2)cc1C(F)(F)F [Compound 72] | 0% | 25% | – | –
25 | Fc1cccc(/C=N/Nc2nc(NCc3ccc(Cl)nc3)nc(Nc3ccc(F)c(C(F)(F)F)c3)n2)c1 [Compound 73] | 100% | 100% | – | –
26 | Fc1ccc(Nc2nc(NCc3ccc(Cl)nc3)nc(N/N=C/c3cccc(C(F)(F)F)c3)n2)cc1C(F)(F)F [Compound 74] | 100% | 100% | – | –
27 | Fc1ccc(Nc2nc(NCc3ccc(Cl)nc3)nc(N/N=C/c3cccc(Cl)c3)n2)cc1C(F)(F)F [Compound 75] | 100% | 100% | – | –
28 | Fc1ccc(/C=N/Nc2nc(NCc3ccc(Cl)nc3)nc(Nc3ccc(F)c(C(F)(F)F)c3)n2)cc1 [Compound 76] | 100% | 100% | – | –
29 | Fc1ccc(Nc2nc(NCc3ccc(C(F)(F)F)nc3)nc(N/N=C/c3ccc(OC(F)(F)F)cc3)n2)cc1C(F)(F)F [Compound 77] | 100% | 100% | – | –
30 | Fc1ccc(Nc2nc(N/N=C/c3cccc(OC(F)(F)C(F)F)c3)nc(N3CCOCC3)n2)cc1F [Compound 78] | 13% | 88% | – | –
31 | CCCOc1ccc(Nc2nc(N/N=C/c3cccc(OC(F)(F)C(F)F)c3)nc(N3CCOCC3)n2)cc1 [Compound 79] | 13% | 100% | – | –
32 | Fc1ccc(Nc2nc(NCCc3cccnc3)nc(N/N=C/c3ccc(OC(F)(F)F)cc3)n2)cc1C(F)(F)F [Compound 80] | 100% | 100% | – | –
33 | Fc1cc(C(F)(F)F)ccc1Nc1nc(N/N=C/c2cccc(OC(F)(F)C(F)F)c2)nc(N2CCOCC2)n1 [Compound 81] | 100% | 100% | – | –
34 | COc1ccc(CNc2nc(N/N=C/c3ccc(OC(F)(F)F)cc3)nc(Nc3ccc(F)c(C(F)(F)F)c3)n2)cn1 [Compound 82] | 100% | 100% | – | –
35 | FC(F)C(F)(F)Oc1cccc(/C=N/Nc2nc(Nc3cccc(OC(F)(F)F)c3)nc(N3CCOCC3)n2)c1 [Compound 83] | 100% | 100% | – | –
36 | FC(F)C(F)(F)Oc1cccc(Nc2nc(N/N=C/c3ccc(C(F)(F)F)cc3)nc(N3CCOCC3)n2)c1 [Compound 84] | 25% | 75% | – | –
37 | FC(F)C(F)(F)Oc1cccc(Nc2nc(NCc3ccc(Cl)nc3)nc(N/N=C/c3ccc(C(F)(F)F)cc3)n2)c1 [Compound 85] | 100% | 100% | – | –
38 | FC(F)C(F)(F)Oc1cccc(Nc2nc(NCc3ccc(Cl)nc3)nc(N/N=C/c3ccc(Cl)cc3)n2)c1 [Compound 86] | 100% | 100% | – | –
39 | FC(F)C(F)(F)Oc1ccc(Nc2nc(NCc3ccc(Cl)nc3)nc(N/N=C/c3ccc(Cl)cc3)n2)cc1 [Compound 87] | 100% | 100% | – | –
40 | Fc1ccc(Nc2nc(Cl)nc(N/N=C/c3ccc(OC(F)(F)F)cc3)n2)cc1C(F)(F)F [Compound 88] | 100% | 100% | – | –
41 | FC(F)C(F)(F)Oc1ccc(Nc2nc(N/N=C/c3ccc(Cl)c(Cl)c3)nc(N3CCOCC3)n2)cc1 [Compound 89] | 100% | 100% | – | –
42 | FC(F)C(F)(F)Oc1ccc(Nc2nc(NCc3ccc(Cl)nc3)nc(N/N=C/c3ccc(C(F)(F)F)cc3)n2)cc1 [Compound 93] | 100% | 100% | – | –
43 | FC(F)C(F)(F)Oc1ccc(Nc2nc(NCc3ccc(Cl)nc3)nc(N/N=C/c3ccc(Cl)c(Cl)c3)n2)cc1 [Compound 94] | 100% | 100% | – | –
44 | FCCOc1ccc(/C=N/Nc2nc(NCc3ccc(Cl)nc3)nc(Nc3ccc(F)c(C(F)(F)F)c3)n2)cc1 [Compound 95] | – | – | 75% | 38%
45 | N#Cc1ccc(/C=N/Nc2nc(NCc3ccc(Cl)nc3)nc(Nc3ccc(OC(F)(F)C(F)F)cc3)n2)cc1 [Compound 96] | 100% | 100% | – | –
